# Laboratory results reported in US10052306B2 (LUC THERAPEUTICS, INC., priority 2013, dated 2018).
# Biological target: NR1/NR2B (Homo sapiens (Human), UniProt Q05586+Q13224)
# Assay: Cell assay: FDSS Ca2+ influx inhibition in HEK293 cells expressing NR1/NR2B;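 further: Fluo-8 Ca2+ signal read on Hamamatsu FDSS 6000 after glutamate, glycine and Ca2+ challenge following 10 min compound preincubation, end/baseline fluorescence ratio compared with MK801 control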
# Conditions: Ca2+ influx
# [1] = Binned Activity, HEK293 cells expressing NR1/NR2B, binned NR2B NAM IC50
# [2] = NR2B NAM IC50, HEK293 cells expressing NR1/NR2B
# NR1/NR2B, sequence (Q13224 27-1484, other chains not shown): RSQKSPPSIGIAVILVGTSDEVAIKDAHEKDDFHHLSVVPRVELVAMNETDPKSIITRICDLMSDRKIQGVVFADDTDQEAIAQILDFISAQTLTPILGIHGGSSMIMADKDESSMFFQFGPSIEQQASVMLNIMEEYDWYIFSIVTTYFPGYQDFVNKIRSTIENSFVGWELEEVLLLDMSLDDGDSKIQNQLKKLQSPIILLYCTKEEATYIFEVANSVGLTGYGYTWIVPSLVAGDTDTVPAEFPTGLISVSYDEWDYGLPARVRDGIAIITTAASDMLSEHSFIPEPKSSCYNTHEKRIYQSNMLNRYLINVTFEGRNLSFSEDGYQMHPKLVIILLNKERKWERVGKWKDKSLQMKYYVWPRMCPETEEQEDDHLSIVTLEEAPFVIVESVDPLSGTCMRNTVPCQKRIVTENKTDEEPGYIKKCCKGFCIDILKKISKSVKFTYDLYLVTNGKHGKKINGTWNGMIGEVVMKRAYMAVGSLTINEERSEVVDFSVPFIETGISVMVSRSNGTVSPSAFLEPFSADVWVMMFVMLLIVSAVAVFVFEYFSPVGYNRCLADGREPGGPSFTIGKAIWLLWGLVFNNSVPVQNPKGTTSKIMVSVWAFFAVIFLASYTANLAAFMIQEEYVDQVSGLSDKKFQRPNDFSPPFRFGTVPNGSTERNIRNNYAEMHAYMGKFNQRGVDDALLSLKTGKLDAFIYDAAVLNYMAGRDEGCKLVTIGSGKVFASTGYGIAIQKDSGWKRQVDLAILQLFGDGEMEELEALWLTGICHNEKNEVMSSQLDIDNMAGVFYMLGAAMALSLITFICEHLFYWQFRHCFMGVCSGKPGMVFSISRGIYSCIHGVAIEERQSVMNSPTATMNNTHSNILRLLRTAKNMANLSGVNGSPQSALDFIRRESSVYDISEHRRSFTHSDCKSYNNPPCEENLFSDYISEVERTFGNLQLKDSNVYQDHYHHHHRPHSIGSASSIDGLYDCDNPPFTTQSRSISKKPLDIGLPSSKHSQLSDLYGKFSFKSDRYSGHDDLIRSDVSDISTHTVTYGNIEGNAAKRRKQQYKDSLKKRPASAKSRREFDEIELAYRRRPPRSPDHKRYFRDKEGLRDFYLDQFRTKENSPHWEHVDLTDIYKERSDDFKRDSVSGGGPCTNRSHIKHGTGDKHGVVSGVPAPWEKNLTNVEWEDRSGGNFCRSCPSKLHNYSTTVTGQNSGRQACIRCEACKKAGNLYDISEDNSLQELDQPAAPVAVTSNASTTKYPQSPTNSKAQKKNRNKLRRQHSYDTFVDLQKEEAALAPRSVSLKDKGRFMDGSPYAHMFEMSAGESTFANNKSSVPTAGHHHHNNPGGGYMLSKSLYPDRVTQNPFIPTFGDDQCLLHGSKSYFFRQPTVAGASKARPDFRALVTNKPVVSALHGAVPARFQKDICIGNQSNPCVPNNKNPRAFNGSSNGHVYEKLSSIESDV
IC50 [1] [nM],IC50 [2] [nM],Structure (SMILES)
> 10000,≥ 10000,"OC(CN1C[C@@H]2C[C@@](O)(c3ccccc3)C[C@@H]2C1)c1ccccc1 (mixture of isomers) [Example 58, rac-2-(2-hydroxy-2-phenylethyl)-5-phenyloctahydrocyclo-penta[c]pyrrol-5-ol]"
< 100,40.9,"Oc1ccc(C(O)CN2C[C@@H]3C[C@@](O)(Cc4ccccc4F)C[C@@H]3C2)nc1 (mixture of isomers) [Example 228, rac-5-(2-fluorobenzyl)-2-(2-hydroxy-2-(5-hydroxypyridin-2-yl)ethyl)octahydrocyclo-penta[c]pyrrol-5-olyl)ethanone]"
> 10000,≥ 10000,O=C(Nc1ccc(Cl)c(C(F)(F)F)c1)N1C[C@@H]2C[C@@](O)(c3ccc(F)cc3)C[C@@H]2C1 [Example 43]
> 10000,≥ 10000,"OC(CN1C[C@H]2C[C@@H](c3ccccc3)C[C@H]2C1)c1cccc(C(F)(F)F)c1 (mixture of isomers) [Example 116, rac-2-(5-phenylhexahydrocyclo-penta[c]pyrrol-2(1H)-yl)-1-(3-(trifluoromethyl)phenyl) ethanol]"
,3150,"Oc1ccc(C(O)CN2C[C@@H]3C[C@@](O)(Cc4ccncc4)C[C@@H]3C2)cc1 (mixture of isomers) [Example 227, rac-(3aR,5r,6aS)-2-(2-hydroxy-2-(4-hydroxyphenyl)ethyl)-5-(pyridin-4-ylmethyl)octahydrocyclo-penta[c]pyrrol-5-ol]"
,12.6,"Oc1ccc(C(O)CN2C[C@@H]3C[C@@](O)(Cc4cccs4)C[C@@H]3C2)cc1 (mixture of isomers) [Example 204, rac-(3aR,5r,6aS)-2-(2-hydroxy-2-(4-hydroxyphenyl)ethyl)-5-(thiophen-2-ylmethyl)octahydrocyclo-penta[c]pyrrol-5-ol]"
> 10000,≥ 10000,"Cc1ccccc1[C@]1(O)C[C@H]2CN(C(C)C(O)c3ccc(O)cc3)C[C@H]2C1 (mixture of isomers) [Example 95, rac-2-[1-hydroxy-1-(4-hydroxyphenyl)propan-2-yl]-5-(2-methylphenyl)-octahydrocyclopenta[c] pyrrol-5-ol]"
,25.7,"Oc1ccc(C(O)CN2C[C@@H]3C[C@@](O)(Cc4cccs4)C[C@@H]3C2)nc1 (mixture of isomers) [Example 215, rac-2-(2-hydroxy-2-(5-hydroxypyridin-2-yl)ethyl)-5-(thiophen-2-ylmethyl)octahydrocyclo-penta[c]pyrrol-5-ol]"
> 10000,≥ 10000,"Cc1ccccc1[C@]1(O)C[C@H]2CN(C(C)C(=O)c3ccc(O)cc3)C[C@H]2C1 (mixture of isomers) [Example 94, rac-2-[5-hydroxy-5-(2-methylphenyl)-octahydrocyclopenta[c]pyrrol-2-yl]-1-(4-hydroxyphenyl)propan-1-one]"
,114,"CS(=O)(=O)Nc1ccc(C(O)CN2C[C@@H]3C[C@@](O)(Cc4ccccc4)C[C@@H]3C2)nc1 (mixture of isomers) [Example 236, rac-N-(6-(2-((3aR,5r,6aS)-5-benzyl-5-hydroxyhexahydrocyclo-penta[c]pyrrol-2(1H)-yl)-1-hydroxyethyl)pyridin-3-yl)methanesulfonamide]"
> 10000,≥ 10000,"COc1cccc(C(O)CN2C[C@@H]3C[C@@](O)(c4cccc(OC)c4)C[C@@H]3C2)c1 (mixture of isomers) [Example 77, rac-2-[2-hydroxy-2-(3-methoxyphenyl)ethyl]-5-(3-methoxyphenyl)-octahydrocyclopenta[c] pyrrol-5-ol]"
,42.5,"Cc1cc(F)ccc1C[C@]1(O)C[C@H]2CN(CC(O)c3ccc(O)cc3)C[C@H]2C1 (mixture of isomers) [Example 254, rac-(3aR,5r,6aS)-5-(4-fluoro-2-methylbenzyl)-2-(2-hydroxy-2-(4-hydroxyphenyl)ethyl) octahydrocyclopenta[c] pyrrol-5-ol]"
> 10000,≥ 10000,"CC(=O)Nc1ccc(C(O)CN2C[C@@H]3C[C@@](O)(Cc4ccccc4)C[C@@H]3C2)cn1 (mixture of isomers) [Example 283, rac-N-(5-(2-((3aR,5r,6aS)-5-benzyl-5-hydroxyhexahydrocyclo-penta[c]pyrrol-2(1H)-yl)-1-hydroxyethyl)pyridin-2-yl)acetamide]"
> 10000,,"O=C(Nc1ccc(F)cc1)N1C[C@@H]2C[C@@](O)(c3ccc(F)cc3)C[C@@H]2C1 [Example 35, N,5-bis(4-fluorophenyl)-5-hydroxy-octahydrocyclopenta[c] pyrrole-2-carboxamide]"
> 10000,,COc1cccc(NC(=O)N2C[C@@H]3C[C@@](O)(c4ccc(F)cc4)C[C@@H]3C2)c1 [Example 37]
> 10000,,Cc1ccc(NC(=O)N2C[C@@H]3C[C@@](O)(c4ccccc4C)C[C@@H]3C2)cc1 [Example 9]
100 to 1000,448,"Oc1ccc(C(O)CN2C[C@@H]3C[C@](F)(Cc4ccccc4)C[C@@H]3C2)cc1 (mixture of isomers) [Example 311, rac-4-(2-((3aR,5s,6aS)-5-benzyl-5-fluorohexahydrocyclo-penta[c]pyrrol-2(1H)-yl)-1-hydroxyethyl) phenol]"
> 10000,≥ 10000,"Cc1ccccc1[C@]1(O)C[C@H]2CN(CC(O)c3cccc(C(F)(F)F)c3)C[C@H]2C1 (mixture of isomers) [Example 72, rac-2-{2-hydroxy-2-[3-(trifluoromethyl)phenyl]ethyl}-5-(2-methylphenyl)-octahydrocyclopenta[c] pyrrol-5-ol]"
,32.4,"CO[C@@]1(Cc2ccccc2)C[C@H]2CN(CC(O)c3ccc(O)c(F)c3)C[C@H]2C1 (mixture of isomers) [Example 175, rac-4-(2-((3aR,5r,6aS)-5-benzyl-5-methoxyhexahydrocyclo-penta[c]pyrrol-2(1H)-yl)-1-hydroxyethyl)-2-fluorophenol]"

# Second part, the molecule before the results:
Structure (SMILES),IC50 [1] [nM],IC50 [2] [nM]
"CC(C)(C)C(=O)Nc1ccc(C(O)CN2C[C@@H]3C[C@@](O)(Cc4ccccc4)C[C@@H]3C2)cn1 (mixture of isomers) [Example 286, rac-N-(5-(2-(5-benzyl-5-hydroxyhexahydrocyclo-penta[c]pyrrol-2(1H)-yl)-1-hydroxyethyl)pyridin-2-yl)pivalamide]",> 10000,≥ 10000
"O=C1Cc2cc(C(O)CN3C[C@@H]4C[C@@](O)(Cc5ccccc5)C[C@@H]4C3)ccc2N1 (mixture of isomers) [Example 152, rac-5-(2-((3aR,5r,6aS)-5-benzyl-5-hydroxyhexahydrocyclo-penta[c]pyrrol-2(1H)-yl)-1-hydroxyethyl)indolin-2-one]",,143
"Oc1ccc(C(O)CN2C[C@@H]3C[C@@](F)(Cc4ccccc4)C[C@@H]3C2)cc1 (mixture of isomers) [Example 313, rac-4-(2-((3aR,5r,6aS)-5-benzyl-5-fluoro-hexahydrocyclopen-ta[c]pyrrol-2(1H)-yl)-1-hydroxyethyl)phenol]",< 100,26.9
"COc1ccc(C[C@]2(O)C[C@H]3CN(CC(O)c4ccc(O)cn4)C[C@H]3C2)cc1 (mixture of isomers) [Example 199, rac-6-{2-[(3aR,5R,6aS)-5-hydroxy-5-[(4-methoxyphenyl)methyl]-octahydrocyclopenta[c]pyrrol-2-yl]-1-hydroxyethyl}pyridin-3-ol]",,36.3
"CC(C)(C)c1ccc([C@]2(O)C[C@H]3CN(CC(O)c4cccc(F)c4)C[C@H]3C2)cc1 (mixture of isomers) [Example 71, rac-5-(4-tert-butylphenyl)-2-[2-(3-fluorophenyl)-2-hydroxyethyl]-octahydrocyclopenta[c] pyrrol-5-ol]",> 10000,≥ 10000
"CO[C@@]1(Cc2ccccc2)C[C@H]2CN(CC(O)c3ccc(O)cc3)C[C@H]2C1 (mixture of isomers) [Example 176, rac-4-(2-((3aR,5r,6aS)-5-benzyl-5-methoxyhexahydrocyclo-penta[c]pyrrol-2(1H)-yl)-1-hydroxyethyl)phenol]",,32.4
"CC(C(=O)c1ccc(O)cc1)N1C[C@H]2CC(Cc3ccccc3)C[C@H]2C1 (mixture of isomers) [Example 296, rac-2-((3aR,6aS)-5-benzylhexahydrocyclo-penta[c]pyrrol-2(1H)-yl)-1-(4-hydroxyphenyl)propan-1-one]",100 to 1000,125
COc1cccc(NC(=O)N2C[C@@H]3C[C@@](O)(c4ccc(C(C)(C)C)cc4)C[C@@H]3C2)c1 [Example 51],> 10000,≥ 10000
COc1cccc(NC(=O)N2C[C@@H]3C[C@@](O)(c4ccccc4C)C[C@@H]3C2)c1,> 10000,≥ 10000
COc1cccc([C@]2(O)C[C@H]3CN(C(=O)Nc4ccc(C)cc4)C[C@H]3C2)c1 [Example 14],> 10000,≥ 10000
"Oc1ccc(C(O)CN2C[C@@H]3C[C@@](O)(Cc4ccccn4)C[C@@H]3C2)cc1 (mixture of isomers) [Example 232, rac-(3aR,5r,6aS)-2-(2-hydroxy-2-(4-hydroxyphenyl)ethyl)-5-(pyridin-2-ylmethyl)octahydrocyclo-penta[c]pyrrol-5-ol]",,669
"CC(C(=O)c1ccc(O)cc1)N1C[C@@H]2C[C@@](O)(c3ccccc3)C[C@@H]2C1 (mixture of isomers) [Example 90, rac-2-(5-hydroxy-5-phenylhexahydrocyclo-penta[c]pyrrol-2(1H)-yl)-1-(4-hydroxyphenyl)propan-1-one]",> 10000,≥ 10000
"Oc1ccc(C(O)CN2C[C@@H]3C[C@](F)(Cc4ccccc4)C[C@@H]3C2)cc1F (mixture of isomers) [Example 316, rac-4-(2-((3aR,5s,6aS)-5-benzyl-5-fluoro-hexahydrocyclopen-ta[c]pyrrol-2(1H)-yl)-1-hydroxyethyl)-2-fluorophenol]",< 100,36.4
"CC(O)(CN1CC2CC(O)(Cc3ccccc3)CC2C1)c1ccc(O)cc1 (racemic) [Example 280, rac-(3aR,5R,6aS)-5-benzyl-2-[2-hydroxy-2-(4-hydroxyphenyl)propyl]-octahydrocyclopenta[c] pyrrol-5-ol]",< 100,43
"CC(C(O)c1ccc(O)cc1)N1C[C@@H]2C[C@@](O)(c3ccc(C(C)(C)C)cc3)C[C@@H]2C1 (mixture of isomers) [Example 96, rac-5-(4-tert-butylphenyl)-2-[1-hydroxy-1-(4-hydroxyphenyl)propan-2-yl]-octahydrocyclopenta[c] pyrrol-5-ol]",,10500
